Experimental data from patent US20240197666A1, “DITERPENOID COMPOUNDS THAT ACT ON PROTEIN KINASE C (PKC)” (K-Gen Therapeutics, Inc., priority 2021, published 2024).
Read-outs that look alike come from different tables or passages of the source.

Key:
C1b domain of human PKCε = biological target: T1, C1b domain of human PKCε (Homo sapiens, UniProt Q02156); assay: biochemical; format: binding; conditions: 3H-PDBu competition
T1 construct: Genes encoding C1b domains of human PKCα, δ, ε, θ, and PKD1 (PKCμ) were synthesized; made in house; host or cells: E. coli BL21(DE3)
Outline: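 Recombinant GST-C1b domains (E. coli-expressed) or full-length human PKC competed against tracer ^3H-PDBu; incubation 10 min at 37°C then 20 min on ice, bound radioligand filter-trapped and scintillation-counted. IC50 fitted and converted to Ki via Cheng-Prusoff using experimentally determined Kd per protein preparation.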

A549 cell line = assay: Proliferation of A549 (CellTiter Glo); format: cell-based; conditions: Homo sapiens, A549, 96 h, read-out: IC50 μM (A549 Cell Line)
Outline: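 A549 cells (K-Ras-mutant NSCLC) were seeded at 1,000 cells/well, allowed 24 h to settle, then exposed for 96 h to 3-fold serially diluted compound (final DMSO ≤0.25%). CellTiter Glo luminescence was read, and inhibition was calculated relative to DMSO-only wells. IC50, relative IC50 and % top inhibition came from curve fitting.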

Panc2.13 (Pancreatic) = assay: Proliferation of Panc2.13; format: cell-based; conditions: for IC50: read-out: IC50 Panc2.13 (Pancreatic)
Outline: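 Cells are seeded in 96-well plates at line-dependent density and incubated for 24 h at 37° C. Compounds are then added in a 3-fold series, with final DMSO not exceeding 0.25%. After 96 h, luminescence is read, and IC50 is reported relative to K101 tested in the same batch.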

HL-60 (Leukemia) = assay: Proliferation of HL-60; format: cell-based; conditions: for IC50: Homo sapiens, HL-60, read-out: IC50 HL-60 (Leukemia)
Namalwa (Lymphoma) = assay: Proliferation of Namalwa; format: cell-based; conditions: for IC50: read-out: IC50 Namalwa (Lymphoma)
Outline: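 Luminescent ATP read-out (CellTiter Glo) after 96 h compound exposure gave % inhibition relative to DMSO-treated cells, from which IC50 was fitted. Seeding densities were line-specific, from 800 to 10000 cells/well. Potency across batches was normalised to reference compound K101.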

PANC1 cells = assay: Sphere formation assay; format: cell-based; conditions: Homo sapiens, PANC-1, read-out: concentration exhibiting at least 50% inhibition on the sphere forming efficiency
Experimental: A group of diterpenoid compounds of the present disclosure were tested to assess their effects on blocking formation of spheres from cancer cell lines such as PANC1, a K-Ras mutant pancreatic cell line. Briefly, PANC1 cells were harvested, re-suspended as single cell suspensions, counted and seeded into Ultra Low Attachment Culture 96-well plate (Corning, Cat #3474) at 100 cells/well in 100 μl of complete media (with 10% FBS) containing 2% Matrigel (Corning, Cat #354234) and DMSO or compounds. Six replicates per condition were seeded. The seeded cells were placed in the 37° C. tissue culture incubator. 10 μl of low serum containing media (with 0.1% FBS) was added to each well every week. Spheres formed after 3-4 weeks were counted. Sphere forming efficiency was expressed as percentage of # of spheres/ # of cells seeded.

Panc2.13 tumors = assay: Panc2.13 xenograft model, intra-tumoral injection; format: in vivo, mouse; conditions: for tumor clearance: end of efficacy study, three mice per group, seven daily IT injections; for Tumor growth inhibition T/C: Day 45, seven daily IT injections, Nu/Nu mice
Experimental: Immunodeficient (athymic) Nu/Nu mice were implanted at one flank subcutaneously with Panc2.13 pancreatic cancer cells. […] All groups tolerated drug treatments very well. […] Scabs formed after 1-2 weeks and the skin recovered with minimal scaring after 3-4 weeks. Tumor growth/re-growth on or near the injection site was monitored for up to 55 days. […] Tumor growth inhibition is calculated by dividing the group average tumor volume for the treated group by the group average tumor volume for the control group (TIC). A one-way ANOVA was performed to compare tumor volume among groups, and when a significant F-statistics (a ratio of treatment variance to the error variance) was obtained, comparisons between groups were carried out with Games-Howell test. All data were analyzed using GraphPad 5.0. P<0.05 was considered to be statistically significant.
A Mann-Whitney method was performed to analyze the tumor clearance rate comparing drug treated groups with the vehicle group at the end of the efficacy study. P<0.05 was considered to be statistically significant. Vehicle-injected tumors kept growing and there was no tumor clearance at the end point.

T1 sequence (Q02156 242-292 limits assumed): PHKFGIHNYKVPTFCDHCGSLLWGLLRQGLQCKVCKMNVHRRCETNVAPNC

| SMILES | Ki (C1b domain of human PKCε) [µM] | IC50 (A549 cell line) [µM] | ratio (IC50 of K101)/(IC50 of compound) Panc2.13 (Panc2.13 (Pancreatic)) | IC50 (Panc2.13 (Pancreatic)) [µM] | ratio (IC50 of K101)/(IC50 of compound) HL-60 (HL-60 (Leukemia)) | IC50 (HL-60 (Leukemia)) [µM] | ratio (IC50 of K101)/(IC50 of compound) Namalwa (Namalwa (Lymphoma)) | IC50 (Namalwa (Lymphoma)) [µM] | IC50 (PANC1 cells) [µM] | tumor clearance (Panc2.13 tumors) | Tumor growth inhibition T/C (Panc2.13 tumors) | IC50 (Panc2.13 (Pancreatic); 96 h) [µM] |
| --- | --- | --- | --- | --- | --- | --- | --- | --- | --- | --- | --- | --- |
| CC1=C[C@H]2[C@@]3(O)[C@H](C)C[C@]4(OC(=O)[C@@H](N)CC5CCCCC5)[C@H]([C@@H]3C=C(CO)C[C@]2(O)C1=O)C4(C)C | 0.01 to 0.03 | 0.06 to 0.1 | 7.1 | 0.1 to 0.2 | 2.32 | 0.03 to 0.06 | 2.03 | 0.03 to 0.06 | – | – | – | – |
| CC1=C[C@H]2[C@@]3(O)[C@H](C)C[C@]4(OC(=O)[C@@H](N)CCCCCCc5ccccc5)[C@H]([C@@H]3C=C(CO)C[C@]2(O)C1=O)C4(C)C | 0.01 to 0.03 | 0.001 to 0.01 | 57.3 | 0.01 to 0.03 | 12.1 | 0.001 to 0.01 | 16.1 | 0.001 to 0.01 | ≤ 0.05 | one out of three | – | – |
| CC1=C[C@H]2[C@@]3(O)[C@H](C)C[C@]4(OC(=O)[C@@H](N)[C@]56C[C@H]7C[C@H](C[C@H](C7)C5)C6)[C@H]([C@@H]3C=C(CO)C[C@]2(O)C1=O)C4(C)C | – | 0.001 to 0.01 | 71.7 | 0.01 to 0.03 | 16.2 | 0.001 to 0.01 | 18.2 | 0.001 to 0.01 | ≤ 0.05 | two out of three | 3.3 | – |
| CC1=C[C@H]2[C@@]3(O)[C@H](C)C[C@]4(OC(=O)[C@@H](N)C5Cc6ccccc6C5)[C@H]([C@@H]3C=C(CO)C[C@]2(O)C1=O)C4(C)C | 0.01 to 0.03 | 0.06 to 0.1 | 5.82 | 0.1 to 0.2 | 1.79 | 0.03 to 0.06 | 1.6 | 0.03 to 0.06 | ≤ 0.15 | – | – | – |
| CC1=C[C@H]2[C@@]3(O)[C@H](C)C[C@]4(OC(=O)[C@H](N)CCCCCCc5ccccc5)[C@H]([C@@H]3C=C(CO)C[C@]2(O)C1=O)C4(C)C | 0.01 to 0.03 | 0.01 to 0.03 | 13.4 | – | 4.43 | 0.01 to 0.03 | 4.93 | 0.01 to 0.03 | ≤ 0.15 | – | 0 | 0.1 to 0.6 |
